According to patent publication US8653264B2, “Crystal of erlotinib base and the preparation method thereof” (Zhejiang Huahai Pharmaceutical Co., Ltd., priority 2010, dated 2014):

Legend:
[1] = stability experiment; format: physicochemical; settings: crystal form IV of erlotinib base; conditions not given
[2] = hygroscopicity experiment; format: physicochemical; settings: crystal form IV of erlotinib base; conditions not given

change in the stability experiment [1]: did not significantly change | change in the hygroscopicity experiment [2]: did not significantly change
Compound: C#Cc1cccc(Nc2ncnc3cc(OCCOC)c(OCCOC)cc23)c1 [Form IV, N-(3-ethynylphenyl)-6,7-bis(2-methoxyethoxy)quinazolin-4-amine]
